# Key:
# Conditions in all cases: 72 h
# U2OS [1] = test: drug sensitivity score (DSS) for viability; higher = more toxic; extreme values may be limits of the assay
# HepG2 [2] = test: as above
# Vero E6 [3] = test: as above
# Caco-2 [4] = test: as above
# U2OS [5] = test: relative viability EC50 (midpoint between 100% and the lowest measured viability); higher = less toxic
# HepG2 [6] = test: as above
# Vero E6 [7] = test: as above
# Caco-2 [8] = test: as above
# U2OS [9] = test: cell viability relative to DMSO; higher = less toxic
# HepG2 [10] = test: as above
# Vero E6 [11] = test: as above
# Caco-2 [12] = test: as above
# Calu-3 [13] = test: drug sensitivity score (DSS) for viability; higher = more toxic; extreme values may be limits of the assay
# Calu-3 [14] = test: relative viability EC50 (midpoint between 100% and the lowest measured viability); higher = less toxic
# Calu-3 [15] = test: cell viability relative to DMSO; higher = less toxic
SMILES,drug sensitivity score (U2OS [1]),drug sensitivity score (HepG2 [2]),drug sensitivity score (Vero E6 [3]),drug sensitivity score (Caco-2 [4]),relative viability EC50 (U2OS [5]) [µM],relative viability EC50 (HepG2 [6]) [µM],relative viability EC50 (Vero E6 [7]) [µM],relative viability EC50 (Caco-2 [8]) [µM],cell viability (U2OS [9]; 1 nM) [%],cell viability (U2OS [9]; 10 nM) [%],cell viability (U2OS [9]; 100 nM) [%],cell viability (U2OS [9]; 1000 nM) [%],cell viability (U2OS [9]; 10000 nM) [%],cell viability (HepG2 [10]; 1 nM) [%],cell viability (HepG2 [10]; 10 nM) [%],cell viability (HepG2 [10]; 100 nM) [%],cell viability (HepG2 [10]; 1000 nM) [%],cell viability (HepG2 [10]; 10000 nM) [%],cell viability (Vero E6 [11]; 1 nM) [%],cell viability (Vero E6 [11]; 10 nM) [%],cell viability (Vero E6 [11]; 100 nM) [%],cell viability (Vero E6 [11]; 1000 nM) [%],cell viability (Vero E6 [11]; 10000 nM) [%],cell viability (Caco-2 [12]; 1 nM) [%],cell viability (Caco-2 [12]; 10 nM) [%],cell viability (Caco-2 [12]; 100 nM) [%],cell viability (Caco-2 [12]; 1000 nM) [%],cell viability (Caco-2 [12]; 10000 nM) [%],drug sensitivity score (Calu-3 [13]),relative viability EC50 (Calu-3 [14]) [µM],cell viability (Calu-3 [15]; 1 nM) [%],cell viability (Calu-3 [15]; 10 nM) [%],cell viability (Calu-3 [15]; 100 nM) [%],cell viability (Calu-3 [15]; 1000 nM) [%],cell viability (Calu-3 [15]; 10000 nM) [%]
CCCCCCCCc1ccc(-c2ccc(C(=O)O)cc2)cc1,0,0,0,0,> 10,> 10,> 10,> 10,99,106,96.8,93,95,101,99.8,97.2,101,97.3,101,99.7,97.7,97.7,106,100,107,81.5,98.7,97.3,,,,,,,
COc1cc2nc(N3CCCN(C)CC3)nc(NC3CCN(Cc4ccccc4)CC3)c2cc1OC,3.5,8.8,4.6,1.9,2.69,1.37,2.77,,98,100,95,96.6,43.8,98.8,85.4,91.4,67.5,10.3,106,97.4,99.7,96.2,26.1,96.1,104,88.9,108,54.9,5.7,2.62,84.2,100,89.7,94.1,12.6
COc1ccc(C2CC(c3c(O)cc(C)oc3=O)=NCCS2)c(OC)c1 (configuration not stated),7.1,11.2,11.8,7.1,1.1,0.328,0.391,0.73,102,97,93.9,69.8,33.2,94.9,106,92.8,44.4,36.6,100,105,101,35.9,31,103,98.7,99.5,64.4,47.4,4.4,,105,105,97.7,80.4,57
Cc1cc2c(N3CCCC3)nc(N3CCCC3)nc2n1C,0,0.7,0,1.5,> 10,> 10,> 10,,96.2,101,101,101,93.5,109,94.3,101,100,78.4,104,96,104,99.3,93.5,103,92.2,96.9,97.6,71.8,0,> 10,103,110,93.5,94.5,106
Cc1ccc(NC(=O)C(C)C)cc1C1CCN(Cc2ccc(Oc3ccc(F)c(F)c3)cc2)CC1,1.2,3.5,0.9,2,> 10,3.39,> 10,,96.2,95.8,99.5,94.6,80.3,105,97.4,97.4,103,31.5,106,102,99.5,100,75.3,90.7,101,98.4,98.3,62.8,,,,,,,
O=C(NC[C@H](O)CN1CCc2ccccc2C1)c1cc(NC2COC2)ncn1,0,3.4,0,0,> 10,,> 10,> 10,102,97,97.5,100,101,109,104,102,88.2,64.4,97.5,97.2,100,95.8,98.9,96.1,92,91,95.5,91.2,0,> 10,103,113,104,102,91
O=C(O)CCc1c[nH]c2ccccc12,0,0,0,,> 10,> 10,> 10,,98.5,108,106,107,106,116,96.7,110,105,108,97.3,99.5,104,102,102,,,,,,0,> 10,98.7,95.5,95.2,90.4,107
O=C(C[C@H]1CC(c2ccc(F)cc2F)=NO1)N1CCOCC1 (racemic) [CPSI-1306-(+/-)],0,0,0,0,> 10,> 10,> 10,> 10,95.7,99.3,99.1,102,104,101,107,96.4,95.6,104,95.6,97.4,93.6,95,106,93.7,105,107,90.9,104,,,,,,,
CN1c2ccccc2C(=O)N2CCc3c([nH]c4ccccc34)C21 (stereo in doubt) [evodiamine],5.5,9.9,6.7,5.2,1.44,0.508,1.27,,94.7,93.7,99.7,83.6,43,91.3,94.5,98.6,47.3,36.3,89.9,100,95.8,74.1,33.7,101,99.6,104,76.1,55.7,3.8,,96.8,89.9,96.7,80.6,62.4
CCCCCCCCCCCCCCCCCCCCCC(=O)O [AGP-103],0,0,0,0,> 10,> 10,> 10,> 10,99.8,93.9,98.3,101,102,97.6,94.8,98.5,95.5,92.7,105,106,100,97.9,99.1,104,90.4,96.5,106,99.9,,,,,,,
C[C@H]1[C@@H](O)O[C@@H]2O[C@@]3(C)CC[C@H]4[C@H](C)CC[C@@H]1[C@@]24OO3 [ARTENIMOL],6.3,1.6,0,1.7,1.57,,> 10,> 10,96.5,104,92.4,82.4,31.8,106,100,96.4,97.2,71.8,115,99.1,101,103,95.9,100,102,100,88.9,79.8,0,> 10,93.8,94.8,97.5,101,98.6
Cc1ccccc1C(=O)c1ccc(Nc2ccc(Br)cc2N)cc1Cl [EO-1428],0.7,0,0.7,2.4,> 10,> 10,> 10,,98.5,101,96.1,96.2,82.8,97,96,98.3,85.6,108,96.7,101,93.4,80.7,92.2,103,95.5,92.3,85.7,74,0,> 10,93,96.6,83.4,90.8,89.5
COc1cc2c(cc1NS(=O)(=O)c1ccc(Br)cc1C)n(C)c(=O)n2C [OF-1],0.3,5.1,0.1,2.1,> 10,1.69,> 10,> 10,99.1,94.6,103,93,88.3,96.5,101,97.1,87.8,42.3,105,102,96.4,99.7,88,94,95.3,102,86.2,78.2,,,,,,,
Nc1nccc(-c2ccc3noc(-c4ccc(Cl)cc4)c3c2)n1 [PIM-1-Inhibitor-2],0,3.4,0,0,> 10,,> 10,> 10,98.3,104,93.2,99.6,93.6,96.8,94.2,92.6,92.7,57.7,97.7,103,104,98.5,99.7,98,97,91.9,102,98.2,0,> 10,100,91.4,99,97,88.8
N#CSc1cc(SC#N)c(N)nc1N [PR-619],0,1.9,0.8,0,> 10,,> 10,> 10,101,96.4,99,94.1,90.6,104,120,108,107,55.4,92.3,104,103,99.6,77.3,93,91.5,93.6,92.2,85.4,0,> 10,109,94.5,93.9,107,94.8

# From the supplement of paper PMC13380429
